# Source: BindingDB's records for doi:10.1016/S0960-894X(00)80020-7 (1993)
# Assays:
# [1] = molecular target: Thymidine kinase (Human herpesvirus 1); experiment: Inhibition of HSV-1 Thymidine kinase
# [2] = molecular target: Thymidine kinase (Human herpesvirus 1); experiment: Binding affinity against HSV-1 Thymidine kinase
SMILES,IC50 [1] [µM],Ki [2] [µM]
"CCO[C@@H]1O[C@@H](n2cc(C)c(=O)[nH]c2=O)C[C@H]1O [1-((2R,4R,5R)-5-Ethoxy-4-hydroxy-tetrahydro-furan-2-yl)-5-methyl-1H-pyrimidine-2,4-dione]",> 50,
"Cc1cn([C@H]2C[C@@H](O)[C@H](OC(C)(C)C)O2)c(=O)[nH]c1=O [1-((2R,4R,5R)-5-tert-Butoxy-4-hydroxy-tetrahydro-furan-2-yl)-5-methyl-1H-pyrimidine-2,4-dione]",> 50,
"C#C[C@H]1O[C@@H](n2cc(C)c(=O)[nH]c2=O)C[C@@H]1O [1-((2R,4S,5R)-5-Ethynyl-4-hydroxy-tetrahydro-furan-2-yl)-5-methyl-1H-pyrimidine-2,4-dione]",3,2
"Cc1cn([C@H]2C[C@H](O)[C@@H](OC(C)(C)C)O2)c(=O)[nH]c1=O [1-((2R,4S,5S)-5-tert-Butoxy-4-hydroxy-tetrahydro-furan-2-yl)-5-methyl-1H-pyrimidine-2,4-dione]",> 50,
"Cc1cn([C@H]2C[C@@H](O)[C@H](OCCCc3ccccc3)O2)c(=O)[nH]c1=O [1-[(2R,4R,5R)-4-Hydroxy-5-(3-phenyl-propoxy)-tetrahydro-furan-2-yl]-5-methyl-1H-pyrimidine-2,4-dione]",> 50,
"Cc1cn([C@H]2C[C@H](O)[C@@H](OCCCc3ccccc3)O2)c(=O)[nH]c1=O [1-[(2R,4S,5S)-4-Hydroxy-5-(3-phenyl-propoxy)-tetrahydro-furan-2-yl]-5-methyl-1H-pyrimidine-2,4-dione]",10,4.3

# Second part, the compound after the results:
IC50 [1] [µM],Ki [2] [µM],SMILES
> 50,,"CCCO[C@@H]1O[C@@H](n2cc(C)c(=O)[nH]c2=O)C[C@H]1O [1-((2R,4R,5R)-4-Hydroxy-5-propoxy-tetrahydro-furan-2-yl)-5-methyl-1H-pyrimidine-2,4-dione]"
> 50,,"CCCO[C@H]1O[C@@H](n2cc(C)c(=O)[nH]c2=O)C[C@@H]1O [1-((2R,4S,5S)-4-Hydroxy-5-propoxy-tetrahydro-furan-2-yl)-5-methyl-1H-pyrimidine-2,4-dione]"
50,,"CCO[C@H]1O[C@@H](n2cc(C)c(=O)[nH]c2=O)C[C@@H]1O [1-((2R,4S,5S)-5-Ethoxy-4-hydroxy-tetrahydro-furan-2-yl)-5-methyl-1H-pyrimidine-2,4-dione]"
